Data set [1] in a line: IV Cassette PK Assay in rats. The data set is classed as in vivo. Particulars: rat, male Wistar-Han rats, plasma, read-out: Cassette PK T1/2 (hr), Imidazo-Pyrazinyl Analog (converted). The protocol:
The results were obtained using the following the procedure:
Adult male Wistar-Han rats were fasted overnight and administered a cassette IV dose of mixture of several compounds via a previously implanted catheter in the femoral vein. Animals were allowed access to food 4 h post dose. Blood samples were collected into EDTA-containing tubes at the following time points: 0.03, 0.13, 0.25, 0.5, 1, 2, 4, 8 h post-dose. Blood samples were stored on ice until plasma was harvested by centrifugation. Plasma was transferred to a 96-well plate and stored at −20° C. until analysis. Concentrations of each compound in rat plasma were determined by LC-MS/MS following protein precipitation.

For data set [2], the system named is Spontaneously hypertensive rats (SHR). The data set is described as follows: Acute Efficacy in Spontaneously Hypertensive Rats (SHR), telemetry blood pressure. The data set is classed as in vivo, rat. Particulars: single oral gavage. The essentials: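 Male SHR fitted with aortic telemetry transmitters and recovered 14 days; conscious blood pressure sampled 30 s every 10 min. Single oral gavage dose (vehicle 10% transcutol/20% Cremophor/70% water); hourly SBP change versus prior-day vehicle baseline, reported as maximum peak decrease.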

Another data set addresses T1, sGC α1/β1 heterodimer (Homo sapiens, UniProt Q02108+Q02153).
T1 construct: expressed in transfected cells
T1 sequence (Q02108 1-690): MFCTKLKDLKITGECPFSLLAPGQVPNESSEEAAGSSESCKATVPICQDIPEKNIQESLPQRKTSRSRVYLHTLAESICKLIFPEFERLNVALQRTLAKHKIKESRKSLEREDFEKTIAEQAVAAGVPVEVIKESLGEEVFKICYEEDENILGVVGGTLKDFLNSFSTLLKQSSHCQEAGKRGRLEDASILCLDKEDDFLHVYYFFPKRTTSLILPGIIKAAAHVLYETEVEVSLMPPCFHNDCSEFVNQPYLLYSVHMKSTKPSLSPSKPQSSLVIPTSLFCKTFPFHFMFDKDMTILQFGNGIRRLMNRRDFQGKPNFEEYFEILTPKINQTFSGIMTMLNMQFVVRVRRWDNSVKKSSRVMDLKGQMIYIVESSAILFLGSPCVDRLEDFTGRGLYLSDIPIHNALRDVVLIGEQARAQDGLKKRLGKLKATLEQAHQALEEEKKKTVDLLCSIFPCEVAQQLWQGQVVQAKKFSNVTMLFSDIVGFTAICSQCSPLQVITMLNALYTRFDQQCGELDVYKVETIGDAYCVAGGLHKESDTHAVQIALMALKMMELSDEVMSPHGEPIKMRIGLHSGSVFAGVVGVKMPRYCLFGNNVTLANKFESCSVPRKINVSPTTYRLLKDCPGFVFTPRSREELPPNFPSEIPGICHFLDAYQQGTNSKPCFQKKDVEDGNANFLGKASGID
T1 sequence (Q02153 1-619): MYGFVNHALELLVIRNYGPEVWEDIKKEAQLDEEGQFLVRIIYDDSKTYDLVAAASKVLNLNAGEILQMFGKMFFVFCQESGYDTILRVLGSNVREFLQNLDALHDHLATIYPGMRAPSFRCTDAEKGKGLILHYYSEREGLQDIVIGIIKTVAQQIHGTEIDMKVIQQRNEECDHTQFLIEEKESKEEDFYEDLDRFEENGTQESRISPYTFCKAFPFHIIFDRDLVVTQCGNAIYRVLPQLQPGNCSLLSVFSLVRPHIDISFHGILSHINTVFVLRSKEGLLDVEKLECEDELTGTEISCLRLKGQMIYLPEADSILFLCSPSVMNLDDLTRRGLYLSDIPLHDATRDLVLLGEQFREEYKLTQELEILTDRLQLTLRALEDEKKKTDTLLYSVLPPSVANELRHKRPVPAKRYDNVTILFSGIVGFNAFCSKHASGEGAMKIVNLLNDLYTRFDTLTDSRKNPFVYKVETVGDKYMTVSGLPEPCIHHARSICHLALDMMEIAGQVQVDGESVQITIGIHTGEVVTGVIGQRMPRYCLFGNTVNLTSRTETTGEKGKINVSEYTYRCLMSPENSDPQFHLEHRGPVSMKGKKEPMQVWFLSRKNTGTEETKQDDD
The data set is described as follows: Cell-Based sGC Functional Assay (CASA Assay), cGMP generation in CHO-K1/sGC cells.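 Further: reference Compound A is a published heme-dependent sGC activator.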 To be noted: maximum cGMP production of Compound A set to 100% activation, read-out: % Act. (percent activation relative to Compound A). An outline of the steps:
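CHO-K1 cells stably expressing human sGC α1/β1, 4×10^5/mL in EBSS with 5 mM MgCl2, 10 mM HEPES, 0.05% BSA, 0.5 mM IBMX, 2.5% DMSO; compounds 1 h at 37 °C ± 1 μM DETA-NO. cGMP by HTRF, expressed as % of reference Compound A maximum; IP and max fold induction from 4P fit.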

Molecules are shown by their SMILES.

Take `CC1(c2ccc(F)cn2)C(=O)Nc2nc(-c3cn4ccnc4c(CCC(F)(F)C(F)(F)F)n3)nc(N)c21` (stereo not drawn): the half-life in data set [1] is 1.41 h.
For the compound `Nc1nc(-c2cn3ccnc3c(CCCC(F)(F)F)n2)nc2c1C(c1ccc(C(F)F)cn1)(C1CC1)C(=O)N2` (stereo not drawn), in data set [1], the half-life was 2.12 h.
As for `CCCc1nc(-c2nc(O)c3c(n2)NC(=O)C3(C)c2ccc(Cl)c(F)c2)cn2ncnc12` (stereo not drawn) [Example 166B, 5-(4-chloro-3-fluorophenyl)-4-hydroxy-5-methyl-2-(8-propyl-[1,2,4]triazolo[1,5-a]pyrazin-6-yl)-5H-pyrrolo[2,3-d]pyrimidin-6(7H)-one], the “Maximum peak decrease of systolic blood pressure (SBP) in SHR, Cat.” value (“Maximum peak decrease” below) in data set [2] (P.O. 3 mpk) is reported as “B (Category B=SBP in SHRs 20-40 mmHg)”. Moreover, the Emax at sGC α1/β1 heterodimer amounted to 117%.
With `CC(C)Cc1nc(-c2ncc3c(n2)NC(=O)[C@@]3(C)c2ccc(F)cc2)cn2ncnc12` [Example 173A, (S)-5-(4-fluorophenyl)-2-(8-isobutyl-[1,2,4]triazolo[1,5-a]pyrazin-6-yl)-5-methyl-5,7-dihydro-6H-pyrrolo[2,3-d]pyrimidin-6-one], in data set [2] (P.O. 1 mpk), the “Maximum peak decrease” value was “A (Category A=SBP in SHRs <20 mmHg)”. For the same compound, the Emax at sGC α1/β1 heterodimer worked out at 176%.
Regarding `C[C@@]1(c2ccc(F)cc2)C(=O)Nc2nc(-c3cn4ncnc4c(CCC(F)(F)C(F)(F)F)n3)nc(C(N)=O)c21` [Example 177A, 5-(4-Fluorophenyl)-5-methyl-6-oxo-2-(8-(3,3,4,4,4-pentafluorobutyl)-[1,2,4]triazolo[1,5-a]pyrazin-6-yl)-6,7-dihydro-5H-pyrrolo[2,3-d]pyrimidine-4-carboxamide], the “Maximum peak decrease” value in data set [2] (P.O. 1 mpk) was “C (Category C=SBP in SHRs >40 mmHg)”. For the same compound, the Emax at sGC α1/β1 heterodimer came to 168%.
For `NC(=O)c1nc(-c2cn3ncnc3c(CCCC(F)(F)F)n2)nc2c1C(c1ccc(C(F)(F)F)cn1)(C1CC1)C(=O)N2` (stereo not drawn) [Example 178A] the same measures were “B (Category B=SBP in SHRs 20-40 mmHg)” and 108%.
As for `CC1(c2ccc(C(F)(F)F)cn2)C(=O)Nc2nc(-c3cn4ncnc4c(CCCC(F)(F)F)n3)nc(C(N)=O)c21` (stereo not drawn) [Example 179B, 5-methyl-6-oxo-2-(8-(4,4,4-trifluorobutyl)-[1,2,4]triazolo[1,5-a]pyrazin-6-yl)-5-(5-(trifluoromethyl)pyridin-2-yl)-6,7-dihydro-5H-pyrrolo[2,3-d]pyrimidine-4-carboxamide], the “Maximum peak decrease” value in data set [2] (P.O. 0.3 mpk) was “B (Category B=SBP in SHRs 20-40 mmHg)”. For the same compound, the Emax at sGC α1/β1 heterodimer amounted to 101%.

These data come from patent US10925876B2, “Methods for using triazolo-pyrazinyl soluble guanylate cyclase activators in fibrotic disorders” (Merck Sharp & Dohme Corp., priority 2016, dated 2021).
